Measurements as given in patent publication US5190923A, “Peptide compounds containing a cyclic amide structure” (Adir Et Compagnie, priority 1990, dated 1993).

Legend:
Assay type in all cases: in vivo
[1] = test system: sodium-dependent choline uptake (HACU); assay: Cholinergic deficit induced by barbiturate narcosis in mice (hippocampal HACU); conditions: mouse hippocampus
[2] = test system: oxotremorine-induced tremor; assay: Oxotremorine-induced tremor in mice; conditions: for minimal active dose (potentiation of tremor): IP
Method: Administered at a dose of 0.5 mg/kg IP, oxotremorine, a non-selective M1 -M2 muscarinic agonist leads to cholinergic symptoms of central origin, such as tremor. In control animals, the maximum tremor-inducing effect is observed after 15 minutes, and this effect disappears completely in the course of 45 to 60 minutes.
The administration of TRH (10 mg/kg IP) 30 minutes before that of oxotremorine potentiates the tremor (+50%) at its peak of intensity (15 minutes), but prolongs it to only a very small extent (15 minutes:+20%). The minimal active dose is 5 mg/kg.
Under the same conditions, the compounds of the invention also exert the same potentiating effect, but at much lower minimal active doses, and this effect persists for a further 60 minutes after the injection of oxotremorine. Thus, the minimal active doses are, for example, as follows: […]

[3] = test system: xylazine-induced loss of righting reflex; assay: Xylazine induced inhibition of the righting reflex in rats; conditions: IP
Method: The administration of a central α2 agonist, xylazine, to rats leads to loss of the animal's righting reflex. This effect is antagonized by yohimbine (α2 antagonist) and by agents facilitating noradrenaline release.
TRH antagonizes the effect of xylazine, and the median effective dose is close to 10 mg/kg IP. Under the same conditions, the ED50 of the compounds of Examples 1 and 5 are 0.1 and 0.3 mg/kg, respectively.

[4] = 30 minutes before oxotremorine 0.5 mg/kg IP

Molecule | counteraction of the fall in HACU ([1]; 1 mg/kg IP, administered 30 minutes before induction of narcosis) [%] | counteraction of the fall in HACU ([1]; 3 mg/kg IP, administered 30 minutes before induction of narcosis) [%] | minimal active dose (potentiation of tremor) [2, 4] [mg/kg] | median effective dose (ED50), antagonism of the effect of xylazine [3] [mg/kg] | counteraction of the fall in HACU ([1]; 10 mg/kg IP, administered 30 minutes before pentobarbital) [%] | counteraction of the fall in HACU ([1]; 10 mg/kg IP, administered simultaneously with pentobarbital (60 mg/kg IP)) [%] | counteraction of the fall in HACU ([1]; 30 mg/kg IP, administered 30 minutes before pentobarbital) | potentiation of the tremor at its peak of intensity (15 minutes) ([2]; 10 mg/kg IP, 30 minutes before oxotremorine 0.5 mg/kg IP) | prolongation of the tremor ([2]; 10 mg/kg IP, 30 minutes before oxotremorine, printed time 15 minutes) | potentiation of the tremor measured at the peak ([2]; administered 60 minutes before the muscarinic agonist)
AZEP-(S)(N.tau.-Me)His-(1S,3S,4R)ABH-NH2 [Example 1] | -25.5 | -61.1 | 0.3 | 0.1 | – | – | – | – | – | –
NC(=O)[C@@H]1CCCN1C(=O)[C@H](Cc1cnc[nH]1)NC(=O)[C@@H]1CCC(=O)N1 [TRH] | – | – | 5 | ~10 | -1.9 | -35 | +4.8% | +50% | +20% | no longer potentiates the tremor
